Measurements from patent publication US20090281120A1, “BICYCLIC HETEROCYCLIC COMPOUND” (ONO PHARMACEUTICAL CO., LTD, priority 2005, published 2009).

Columns and labels:
human CRF receptor I [1] = biological target: T1, human CRF receptor I (Homo sapiens, UniProt P34998); experiment: Receptor antagonistic activity (cyclic AMP assay); format: cell-based; settings: forced expression cell strain of human CRF receptor I; stimulated with human/rat CRF; 37° C., 15 minutes; read-out: antagonistic activity against CRF IC50 value (accumulated cyclic AMP)
T1 construct: expressed in transfected cells; host or cells: CHO-K1
T1 sequence (P34998 24-415): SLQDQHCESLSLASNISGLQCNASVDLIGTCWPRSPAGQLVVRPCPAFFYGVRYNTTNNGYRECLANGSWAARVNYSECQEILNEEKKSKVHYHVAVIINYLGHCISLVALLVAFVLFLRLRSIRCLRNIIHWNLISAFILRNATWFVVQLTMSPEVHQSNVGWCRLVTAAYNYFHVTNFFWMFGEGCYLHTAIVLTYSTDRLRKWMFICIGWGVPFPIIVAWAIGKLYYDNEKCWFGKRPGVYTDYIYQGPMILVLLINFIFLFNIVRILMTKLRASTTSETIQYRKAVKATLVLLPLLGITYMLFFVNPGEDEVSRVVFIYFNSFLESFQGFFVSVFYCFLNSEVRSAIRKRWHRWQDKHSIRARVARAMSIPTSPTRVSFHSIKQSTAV
Experimental: The forced expression cell strain of the human CRF receptor I was cultured at 37° C. under 5% carbon dioxide and 95% air by using a Ham's F-12 medium (F-12 nutrient mixture) containing 10% bovine fetal serum and 1% antibiotic substance-antifungal agent. On the previous day before the cyclic AMP was measured, the cells were inoculated into a 96-well plate in an amount of 1×10^4 cell/well. On the measurement day, the cells were washed twice with a Ham's F-12 medium, whereby a solution of Ham's F-12 medium/1 mM 3-isobutyl-1-methylxanthine (assay medium) (178 μL) was added to each well. After the incubation at 37° C. for 10 minutes, test drug solutions (2 μL) in various concentrations were added thereto, or DMSO (2 μL) was added to a CRF group and a blank group. An assay medium (20 μL) containing 10 nM human/rat CRF was added to wells of a compound group and the CRF group. An assay medium (20 μL) containing 0.00001% acetic acid was added to the blank group. Each group was further incubated at 37° C. for 15 minutes. […] The accumulated cyclic AMP amounts were calculated by subtracting mean values of corresponding 2 wells in the blank group from that of 2 wells. The IC50 values were calculated with non-linear regression analysis by defining logarithm concentration of the compound as independent variable and an accumulated cyclic AMP amount as dependent variable.

human CRF receptor I [2] = biological target: T1, human CRF receptor I; experiment: Binding assay (125I-CRF, membrane fraction); settings: 125I-CRF 0.25 nM; membrane fraction of CHO-K1 cells forcedly expressing human CRF receptor I; room temperature, 2 hours
Experimental: The forced-expression cell strain of the human CRF receptor I (parent strain is CHO-K1 cell) was cultured until the cell was confluent and collected with a scraper. The collected cells were washed twice with PBS, and were suspended with an ice-colded binding assay buffer (Tris-HCl (50 mM, pH 7.0), EDTA (2 mM, pH 8.0), and MgCl2 (10 mM))). After fractured with a dounce-type homogenizer, the suspended cells were centrifuged at 10,000 g, and a membrane fraction was collected. The collected membrane fraction was resuspended with a little amount of the binding assay buffer, thereafter diluted with the binding assay buffer so as to have a concentration of 1 mg/mL. The obtained membrane fraction was used for a binding assay.
^125I-CRF was diluted with the binding assay buffer so as to have a concentration of 0.5 nM, whereby 50 μL of the diluted ^125I-CRF was added to a siliconized 1.5-mL tube. Next, test drugs diluted at appropriate times, such as DMSO (for general binding) or 100 μM of CRF (for non-specific binding), was added to a […]. Finally, 50 μL of the membrane fraction was added thereto and the reaction was started (final concentration of ^125I-CRF was 0.25 nM). The tube was incubated at room temperature for 2 hours. […] A membrane binding count was measured using a γ counter.
The specific binding count was obtained by subtracting the non-specific count from the measured count.

IC50 (human CRF receptor I [1]): 41 nM
IC50 (human CRF receptor I [2]): 12 nM
SMILES: CCC(CC)c1cc(C)c2nc(-c3ccc(OC)cc3Cl)c(C)n2c1 [Example 7, 2-(2-chloro-4-methoxyphenyl)-6-(1-ethylpropyl)-3,8-dimethylimidazo[1,2-a]pyridine]
